Laboratory results as given in PMC10221314 (Pharmaceuticals, 2023).
Entries after “also recorded” stand apart in the source; their conditions may differ.

Tests used:
[1] = Stability of compound 10b in mouse plasma at 37 °C (HPLC); assay type: in vitro ADME; set-up: recovery at 6 h / recovery at 48 h: dose or concentration left out as unconfirmed; conditions: for Mass of 10b extracted from mouse plasma: theoretical mass 38.5 μg
Procedure: 3. Stability test of compound 10b
To preliminarily determine the stability of compound 10b in a biological environment, an in vitro experimental verification method was employed. The trace compound was dissolved in mouse plasma to simulate the biological environment.
Samples were taken at different time intervals at 37 °C, and the content of the compound was determined by HPLC C18 analytical column. The peak area of the absorption at 220 nm was utilized for content calculation.
The standard curve shown in Fig. S1 can be plotted using the peak area and the mass of compound 10b in the corresponding volume of the solution. The relationship is y = 23.253x+ 100.67 (R2 = 0.9994), which meets linearity requirements and can be used for subsequent operations.
Fig. S1. The relationship curve between the absorption peak area and mass of compound 10b at 220 […]
Subsequently, a mouse with a body weight of 20 g and blood volume of 1 mL was calculated based on the subsequent in vivo experiment’s dosage (100 mg·Kg-1).
Assuming 100% absorption, the converted plasma drug concentration is 2 mg·mL -1.
Based on the calculation, 0.5 mg of 10b was added to […] of mouse plasma to prepare a mixed solution. The plasma was then processed after 1h, 6h, 12 h, 24 h, and 48 h, respectively. The compound content in the sample was compared to the initial content with UV absorption and retention time (t = 6.5 min). […]
significant decrease in the content of 10b was observed between 0 to 48 hours, […]

FXR = biological target: T1, FXR (Homo sapiens, UniProt Q96RI1); assay: NR selectivity one-hybrid assay in HEK-293T cells (FXR); assay type: cell-based; conditions: FXR agonist CDCA (50 μM)
T1 construct: a fusion plasmid of Gal4 DBD-NR-LBD, which included PPARα, PPARβ, PPARγ, RXRα, RXRβ, RXRγ, LXRα, LXRβ, GPBAR, PXR, and FXR; expressed in transfected cells; host or cells: HEK-293T
T1 sequence (Q96RI1 262-486 limits assumed): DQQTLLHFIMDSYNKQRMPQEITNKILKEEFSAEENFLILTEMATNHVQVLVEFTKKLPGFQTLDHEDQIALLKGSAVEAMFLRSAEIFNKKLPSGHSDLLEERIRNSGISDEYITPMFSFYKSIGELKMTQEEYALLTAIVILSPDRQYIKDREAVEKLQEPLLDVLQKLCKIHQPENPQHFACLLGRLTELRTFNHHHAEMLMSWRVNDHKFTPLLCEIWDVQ
Procedure: (§1) To assess the compound’s specificity, the mammalian one-hybrid assay was conducted. In this assay, HEK-293T cells were co-transfected with a fusion plasmid of Gal4 DBD-NR LBD (comprising RXRα, RXRβ, RXRγ, PPARα, PPARβ, PPARγ, LXRα, LXRβ, GPBAR, and PXR) and the UAS-TK-Luc reporter, followed by treatment with various concentrations of the compound. The positive control consisted of the corresponding nuclear receptor agonist, and the concentration used in the experiment was set to the EC50 of the agonist.
(§2) Figure 3 Compound 10b selectively antagonized FXR. The impact of compound 10b on various NRs was evaluated using a […] one-hybrid assay in HEK-293T cells. The cells were transiently co-transfected with a fusion plasmid of Gal4 DBD-NR-LBD, which included PPARα, PPARβ, PPARγ, RXRα, RXRβ, RXRγ, LXRα, LXRβ, GPBAR, PXR, and FXR, in combination with the UAS-TK-Luc reporter. […] The values are expressed as the means ± SE of three independent experiments. *: p < 0.05 vs. RA (relative agonist).

[2] = system: RXRα, RXRβ, RXRγ, LXRα, LXRβ, PXR, PPARα, PPARβ, PPARγ, and GPBAR; assay: NR selectivity one-hybrid assay in HEK-293T cells (panel of metabolic NRs); assay type: cell-based
Procedure: as §1, §2

PPARα = biological target: T2, PPARα (Homo sapiens, UniProt Q07869); assay: NR selectivity one-hybrid assay in HEK-293T cells (PPARα); assay type: cell-based; conditions: activated by fenofibrate
T2 construct: a fusion plasmid of Gal4 DBD-NR LBD (comprising RXRα, RXRβ, RXRγ, PPARα, PPARβ, PPARγ, LXRα, LXRβ, GPBAR, and PXR); expressed in transfected cells; host or cells: HEK-293T
T2 sequence (Q07869 239-466 limits assumed): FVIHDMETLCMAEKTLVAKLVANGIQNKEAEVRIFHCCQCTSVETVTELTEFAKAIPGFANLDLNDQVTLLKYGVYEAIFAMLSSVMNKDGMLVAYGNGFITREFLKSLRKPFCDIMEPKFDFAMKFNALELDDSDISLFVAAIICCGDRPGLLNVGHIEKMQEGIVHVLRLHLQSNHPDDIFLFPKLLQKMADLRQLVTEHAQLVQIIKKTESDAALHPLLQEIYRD
Procedure: as §1, §2

LXRα = biological target: T3, LXRα (Homo sapiens, UniProt Q13133); assay: NR selectivity one-hybrid assay in HEK-293T cells (LXRα); assay type: cell-based; conditions: activated by GW3965
T3 construct: a fusion plasmid of Gal4 DBD-NR LBD (comprising RXRα, RXRβ, RXRγ, PPARα, PPARβ, PPARγ, LXRα, LXRβ, GPBAR, and PXR); expressed in transfected cells; host or cells: HEK-293T
T3 sequence (Q13133 209-447 limits assumed): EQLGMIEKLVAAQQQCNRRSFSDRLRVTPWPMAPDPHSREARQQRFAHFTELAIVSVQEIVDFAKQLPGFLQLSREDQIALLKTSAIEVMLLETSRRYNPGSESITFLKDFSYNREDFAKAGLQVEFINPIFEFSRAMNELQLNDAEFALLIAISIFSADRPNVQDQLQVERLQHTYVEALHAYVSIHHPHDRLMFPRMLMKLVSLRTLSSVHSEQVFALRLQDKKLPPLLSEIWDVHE
Procedure: as §1, §2

Structure (SMILES): CC1(C)CCC2(C(=O)O)CCC3(C)C(C(OC(=O)CCC(NC(=O)OC(C)(C)C)C(=O)OC(C)(C)C)CC4C5(C)CCC(O)C(C)(C)C5CCC43C)C2C1 [Compound 10b, 3β-hydroxy-12β-(4′-((tert-butoxycarbonyl)amide)-5′-(tert-butoxy)-L-glutamte)oxy-13H-olean-28-oic acid]
- recovery at 0 h, 0.0025 mg/mL ([1]; 0 h, read-out: Recovery rate): 68%
- Mass of 10b extracted from mouse plasma ([1]; 0 h): 26.2 µg
- content of 10b in mouse plasma (stability) ([1]; 0 to 48 h): existed stably in mouse plasma; also recorded: remained almost unchanged
- recovery at 1 h, 0.0025 mg/mL ([1]; 1 h, read-out: Recovery rate): 70.9%
- Mass of 10b extracted from mouse plasma ([1]; 1 h): 27.3 µg
- recovery at 6 h ([1]; 6 h, read-out: Recovery rate): 75.8%
- Mass of 10b extracted from mouse plasma ([1]; 6 h): 29.2 µg
- recovery at 12 h, 0.0025 mg/mL ([1]; 12 h, read-out: Recovery rate): 63.4%
- Mass of 10b extracted from mouse plasma ([1]; 12 h): 24.4 µg
- recovery at 24 h, 0.0025 mg/mL ([1]; 24 h, read-out: Recovery rate): 68.5%
- Mass of 10b extracted from mouse plasma ([1]; 24 h): 26.4 µg
- recovery at 48 h ([1]; 48 h, read-out: Recovery rate): 76.6%
- Mass of 10b extracted from mouse plasma ([1]; 48 h): 29.5 µg
- antagonistic effects against FXR (FXR): > 90%
- agonistic effect for tested NRs or GPBAR [2]: no agonistic effect
- antagonistic effects against PPARα (PPARα): 10–20%
- antagonistic effects against LXRα (LXRα): 10–20%
